Test results reported in US20050239867A1, “Methods of using and compositions comprising PDE4 modulators for the treatment and management of pulmonary hypertension” (priority 2004, published 2005).

How the values were obtained:
[1] = system: TNF-α production; test: In vitro inhibition of cytokine (TNF-α) production following LPS-stimulation of human PBMC and human whole blood; type: cell-based; conditions: in vitro studies; more potent than thalidomide
From the text: In a specific embodiment, the pharmacological properties of 3-(3,4-dimethoxy-phenyl)-3-(1-oxo-1,3-dihydro-isoindol-2-yl)-propionamide are characterized in in vitro studies. Studies examine the effects of the compound on the production of various cytokines. Inhibition of TNF-α production following LPS-stimulation of human PBMC and human whole blood by the compound is investigated in vitro. […] The pharmacological effects of 3-(3,4-dimethoxy-phenyl)-3-(1-oxo-1,3-dihydro-isoindol-2-yl)-propionamide may derive from its action as an inhibitor of the generation of inflammatory cytokines.

[2] = system: patients with PH; test: Clinical Study 2 in patients with PH, 12 weeks, placebo controlled; type: in vivo, human
[3] = system: patients with PH; test: Expanded clinical study in 213 PH patients, WHO functional class III or IV, 16 weeks; type: in vivo, human
Procedure: On the basis of the results of the above study 2, the clinical study is expanded with additional 213 PH patients for at least 16 weeks. The study is conducted with patients with PH, WHO functional class III or IV. Two hundred thirteen patients are randomized to receive either 400 mg bid or 800 mg bid of 3-(3,4-dimethoxy-phenyl)-3-(1-oxo-1,3-dihydro-isoindol-2-yl)-propionamide or placebo in a 1:1:1 ratio. The primary endpoint, a 6-minute walk distance, is evaluated at 16 weeks. The treated patients walk 36.4 meters further at 16 weeks compared to a 7.8 meter reduction in walk distance in the placebo group, for a treatment effect of 44.2 meters. Clinical worsening, defined by death, premature withdrawal from study, hospitalization for worsening of PH or institution of epoprostenol, occur in 37% of placebo-treated patients, compared with 11% of the patients treated with the compound of the invention.

[4] = 12 weeks, compared with placebo patients
[5] = after 12 weeks of treatment, compared with placebo

COc1ccc(C(CC(N)=O)N2Cc3ccccc3C2=O)cc1OC (centres unmarked) [3-(3,4-Dimethoxy-phenyl)-3-(1-oxo-1,3-dihydro-isoindol-2-yl)-propionamide]
pharmacological activity profile, potency relative to thalidomide [1]: five to fifty | dyspnea score [2, 4]: improvements | functional class [2, 4]: improvements | cardiac output [2, 5]: increase | pulmonary arterial pressure [2, 5]: decreases | pulmonary vascular resistance [2, 5]: decreases | 6-minute walk distance, average walked farther ([2]; after 12 weeks, 400 mg for four weeks followed by 800 mg for eight weeks, NYHA functional class III): 70 meters | 6-minute walk distance, walked further ([3]; at 16 weeks, 400 mg bid or 800 mg bid): 36.4 meters | 6-minute walk distance, treatment effect versus placebo ([3]; at 16 weeks, 400 mg bid or 800 mg bid, placebo 7.8 meter reduction): 44.2 meters | clinical worsening (death, premature withdrawal, hospitalization for worsening of PH or institution of epoprostenol), share of patients ([3]; at least 16 weeks, placebo 37%): 11% | functional class ([3]; treated versus placebo patients): improved significantly more
